Test results as given in patent US11028095B2, “Spiro-lactam and bis-spiro-lactam NMDA receptor modulators and uses thereof” (Aptinyx Inc., priority 2016, dated 2021).
Where two headings read alike, the source gives them in different places.

Legend:
[1] = test system: positive (hedonic) 50-kHz ultrasonic vocalizations (USVs); assay: Positive Emotional Learning (PEL) test; type: in vivo; conditions: rat, PO, one hour after administration
Procedure: Experiments were conducted as described in Burgdorf et al., “The effect of selective breeding for differential rates of 50-kHz ultrasonic vocalizations on emotional behavior in rats,” Devel. […] Rat 50-kHz ultrasonic vocalization (hedonic USVs) is a validated model for the study of positive affective state and is best elicited by rough-and-tumble play.
The PEL assay measures the acquisition of positive (hedonic) 50-kHz ultrasonic vocalizations (USVs) to a social stimulus, heterospecific rough and tumble play stimulation. Heterospecific rough-and-tumble play stimulation was administered by the experimenter's right hand. One hour after administration of test compound or vehicle negative control (0.5% sodium carboxymethyl cellulose in 0.9% sterile saline vehicle), animals received 3 min of heterospecific rough-and-tumble play that consisted of alternating 15 sec blocks of heterospecific play and 15 sec of no-stimulation. […] Frequency modulated 50-kHz USVs that occurred during each of the no-stimulation periods were quantified to measure PEL. Animals were not habituated to play stimulation before testing. Positive emotional learning was measured during the conditioned stimulus (CS) trials preceding the tickle unconditioned stimulus (UCS) trials. Animals received 15 second trials consisting of 6 CS and 6 UCS trials each (3 min total).

[2] = Microsomal stability (Human); type: in vitro ADME; conditions: human microsomes
Procedure: (§1) Microsomal stability of disclosed compounds was investigated. The following table indicates the percent of compound remaining after 60 minutes.

[3] = Microsomal stability (Rat); type: in vitro ADME; conditions: rat microsomes
Procedure: as §1

Plasma stability (Human) = type: in vitro ADME
Procedure: (§2) Plasma stability of disclosed compounds was investigated. The following table indicates the percent of compound remaining after 60 minutes.

Plasma stability (Rat) = type: in vitro ADME
Procedure: as §2

[4] = target: T1, NMDAR2A expressing HEK cell membranes (Homo sapiens, UniProt Q12879); assay: NMDAR agonist assay, [3H]MK-801 binding, NMDAR2A; type: biochemical; conditions: 50 μM glutamate
T1 construct: expressed in transfected cells; host or cells: HEK cells (membrane extract)
Procedure: (§3) (nonequilibrium conditions).
(§4) The baseline value was determined from the best fit curve of the DPM values modeled using the GraphPad program and the log(agonist) vs. response(three parameters) algorithm was then subtracted from all points in the dataset.

[5] = target: T2, NMDAR2B expressing HEK cell membranes (Homo sapiens, UniProt Q13224); assay: NMDAR agonist assay, [3H]MK-801 binding, NMDAR2B; type: biochemical; conditions: 50 μM glutamate
T2 construct: expressed in transfected cells; host or cells: HEK cells (membrane extract)
Procedure: as §3, §4

[6] = target: T3, NMDAR2C expressing HEK cell membranes (Homo sapiens, UniProt Q05586+Q14957); assay: NMDAR agonist assay, [3H]MK-801 binding, NMDAR2C; type: biochemical; conditions: for EC50: [3H]MK-801 binding
T3 construct: expressed in transfected cells; host or cells: HEK cells (membrane extract)
Procedure: as §3, §4

[7] = target: T4, NMDAR2D expressing HEK cell membranes (Homo sapiens, UniProt O15399); assay: NMDAR agonist assay, [3H]MK-801 binding, NMDAR2D; type: biochemical; conditions: 50 μM glutamate; relative to 1 mM glycine
T4 construct: expressed in transfected cells; host or cells: HEK cells (membrane extract)
Procedure: as §3, §4

[8] = target: T5, NMDAR2B expressing HEK cell membranes (Homo sapiens, UniProt Q05586+Q13224); assay: NMDAR agonist assay, [3H]MK-801 binding, NMDAR2B; type: biochemical; conditions: [3H]MK-801 binding
T5 construct: expressed in transfected cells; host or cells: HEK cells (membrane extract)
Procedure: as §3, §4

[9] = target: T6, NMDAR2D expressing HEK cell membranes (Homo sapiens, UniProt O15399+Q05586); assay: NMDAR agonist assay, [3H]MK-801 binding, NMDAR2D; type: biochemical; conditions: for EC50: [3H]MK-801 binding; for Emax: read-out: NMDAR2D: % maximal [3H]MK-801 binding relative to 1 mM glycine
T6 construct: expressed in transfected cells; host or cells: HEK cells (membrane extract)
Procedure: as §3, §4

IV pharmacokinetics = type: in vivo; conditions: rat, in vivo, 2 mg/kg, Sprague Dawley rats, normal saline; for C0: read-out: C0; for Vd: read-out: Vss
Procedure: Sprague Dawley rats were dosed intravenously using a normal saline formulation containing 2 mg/kg of the compounds identified in the below table. The table below summarizes the results of the IV pharmacokinetics.

[10] = Oral pharmacokinetics (plasma, brain, CSF); type: in vivo; conditions: Sprague Dawley rats, per os, 10 mg/kg; for AUC(0-t) / bioavailability / Tmax / Cmax: rat, plasma, po; for Tmax: normal saline, read-out: Tmax; for Cmax: read-out: Cmax
Procedure: In another experiment, Sprague Dawley rats were dosed per os using a normal saline formulation containing 10 mg/kg of the compounds identified in the table below. Plasma, brain, and CSF samples were analyzed at various time points over a 24 hour period. The table below summarizes the results of the oral pharmacokinetics.

[11] = target: T7, NMDAR2A expressing HEK cell membranes (Homo sapiens, UniProt Q05586+Q12879); assay: NMDAR agonist assay, [3H]MK-801 binding, NMDAR2A; type: biochemical; conditions: NMDAR2A: log EC50, 50 μM glutamate; [3H]MK-801 binding
T7 construct: expressed in transfected cells; host or cells: HEK cells (membrane extract)
Procedure: as §3, §4

[12] = test system: Sciatic nerve chronic constriction nerve injury; assay: Bennett nerve injury assay (mechanical analgesia, paw withdrawal threshold); type: in vivo, Sprague Dawley rats; conditions: 150 mg/kg PO
Procedure: The Bennett model of mechanical analgesia is used to assess the analgesic effects of compounds as measured by paw withdrawal threshold. Bennett G J, Xie Y K, “A peripheral mononeuropathy in rat that produces disorders of pain sensation like those seen in man,” Pain 33:87-107, 1988. […] Vehicle animals receive the surgery and then receive vehicle rather than test compound. Animals were tested 1 hr, 24 h and 1 wk post-test compound or vehicle administration.
Male 2-3 month old Sprague Dawley rats were used. Harlan was the supplier for all studies. Rats were housed in Lucite cages with aspen wood chip bedding, maintained on a 12:12 light:dark cycle (lights on at 5 AM), and given ad libitum access to Purina lab chow (USA) and tap water throughout the study.
Rats were anesthetized using inhaled isoflurane (2.5%). Sciatic nerve chronic constriction nerve injury surgery was performed as previously described (Bennett and Xie, 1988). An incision (˜1.5 cm in length) was made with a scalpel blade dorsally through skin on the right hind limb, parallel and posterior to femur. Using a small pointed hemostat, the biceps femoris and gluteus superficialis muscles were separated. Using curved blunt forceps, the common sciatic nerve was isolated and exposed. For the mechanical analgesia studies, the whole sciatic nerve was ligated. Using hemostats/forceps and chromic gut (5-0), the nerve was loosely ligated with a square knot; 3 ligatures, 1 mm apart were placed on the nerve. […] Testing occurred approximately 2 weeks post-surgery.
During testing, rats were acclimated to the surface of a suspended wire mesh grid (1 cm×1 cm, with the wire being 0.3 cm in diameter) for 15-20 min Starting from the smallest, each Von Frey filament was pressed perpendicularly to the plantar surface of the affected (ipsilateral) hind paw until slightly bent and then held for 6 second. If an obvious hind paw withdrawal or a flinching behavior immediately after the withdrawal of the filament was not observed, the next larger filament was used in the same manner. In case of a response, a lower filament was used. This was repeated until six responses were collected.
For all studies, animals were baselined prior to study start to test for allodynia (defined as a paw withdrawal threshold under 5). A subset of animals was tested with gabapentin (150 mg/kg, PO) to ensure at least 50% analgesia. Once it was confirmed animals were ready for study initiation, animals were balanced across groups. All study investigators were blind to treatment conditions. Animals were dosed with 0.1, 1 or 10 mg/kg of test compound via oral gavage (PO), control sets of animals were dosed with gabapentin (150 mg/kg, PO) or vehicle (0.5% Na-CMC in 0.9% sterile saline, PO). Testing occurred 1 h post-dosing with animals retested 24 hrs and 1 week post-dosing. The percent analgesia calculations for each animal were made using the following equation: % analgesia=[(log(x)−y)/((log (z)−y)]*100, where x=the paw withdrawal threshold for the drug-treated animal in grams, y=the average of the log(x) values for the vehicle treated group, and z=the paw withdrawal threshold for naïve animals in grams (historical value of 15 used). The results for Compound AD, where the percentage of analgesia is measured at 1 hour, 24 hours, and 1 week after compound administration are as follows: for 0.1 mg/kg dose: 37.8% at 1 h, 29.7% at 24 h, and 63.1% at 1 wk; for 1 mg/kg dose: 48.8% at 1 h, 20.6% at 24 h, and 19.8% at 1 wk; and for 10 mg/kg dose: 70.3% at 1 h, 38.8% at 24 h, and 11.3% at 1 wk.

[13] = 50 μM glutamate, relative to 1 mM glycine, read-out: NMDAR2C A: % maximal [3H]MK-801 binding relative to 1 mM glycine

T3 sequence (Q14957 20-1233, other chains not shown): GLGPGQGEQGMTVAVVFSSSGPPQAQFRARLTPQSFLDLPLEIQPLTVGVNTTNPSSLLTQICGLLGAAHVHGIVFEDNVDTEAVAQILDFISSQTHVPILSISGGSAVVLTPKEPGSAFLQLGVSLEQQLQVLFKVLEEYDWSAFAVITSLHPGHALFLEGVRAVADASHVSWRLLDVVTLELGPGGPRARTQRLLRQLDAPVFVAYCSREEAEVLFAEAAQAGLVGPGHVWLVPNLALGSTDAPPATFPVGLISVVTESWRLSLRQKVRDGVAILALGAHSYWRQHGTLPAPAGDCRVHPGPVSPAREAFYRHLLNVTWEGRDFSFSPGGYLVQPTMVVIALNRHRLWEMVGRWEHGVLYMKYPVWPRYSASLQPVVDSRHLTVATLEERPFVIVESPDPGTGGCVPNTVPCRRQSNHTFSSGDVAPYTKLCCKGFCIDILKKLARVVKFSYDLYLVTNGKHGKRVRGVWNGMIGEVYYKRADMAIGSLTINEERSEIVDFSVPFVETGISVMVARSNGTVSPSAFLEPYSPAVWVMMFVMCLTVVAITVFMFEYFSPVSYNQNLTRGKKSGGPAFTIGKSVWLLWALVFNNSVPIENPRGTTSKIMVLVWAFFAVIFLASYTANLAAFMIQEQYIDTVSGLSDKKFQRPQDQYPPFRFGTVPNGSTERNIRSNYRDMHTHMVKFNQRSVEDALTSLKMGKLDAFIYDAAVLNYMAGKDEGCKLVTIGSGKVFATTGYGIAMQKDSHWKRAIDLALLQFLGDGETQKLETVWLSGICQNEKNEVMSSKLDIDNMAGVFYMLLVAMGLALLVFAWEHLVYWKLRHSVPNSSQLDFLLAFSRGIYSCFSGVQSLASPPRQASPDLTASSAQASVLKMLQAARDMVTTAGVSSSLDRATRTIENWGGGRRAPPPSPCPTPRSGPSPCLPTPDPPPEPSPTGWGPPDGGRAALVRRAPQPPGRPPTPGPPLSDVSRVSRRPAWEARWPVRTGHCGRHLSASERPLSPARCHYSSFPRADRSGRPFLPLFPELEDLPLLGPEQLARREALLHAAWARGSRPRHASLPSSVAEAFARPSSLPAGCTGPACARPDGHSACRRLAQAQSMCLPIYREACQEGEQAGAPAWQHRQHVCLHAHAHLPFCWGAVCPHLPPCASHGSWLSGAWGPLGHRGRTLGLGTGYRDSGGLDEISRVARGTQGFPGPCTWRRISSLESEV
T1 sequence (Q12879 23-1464, other chains not shown): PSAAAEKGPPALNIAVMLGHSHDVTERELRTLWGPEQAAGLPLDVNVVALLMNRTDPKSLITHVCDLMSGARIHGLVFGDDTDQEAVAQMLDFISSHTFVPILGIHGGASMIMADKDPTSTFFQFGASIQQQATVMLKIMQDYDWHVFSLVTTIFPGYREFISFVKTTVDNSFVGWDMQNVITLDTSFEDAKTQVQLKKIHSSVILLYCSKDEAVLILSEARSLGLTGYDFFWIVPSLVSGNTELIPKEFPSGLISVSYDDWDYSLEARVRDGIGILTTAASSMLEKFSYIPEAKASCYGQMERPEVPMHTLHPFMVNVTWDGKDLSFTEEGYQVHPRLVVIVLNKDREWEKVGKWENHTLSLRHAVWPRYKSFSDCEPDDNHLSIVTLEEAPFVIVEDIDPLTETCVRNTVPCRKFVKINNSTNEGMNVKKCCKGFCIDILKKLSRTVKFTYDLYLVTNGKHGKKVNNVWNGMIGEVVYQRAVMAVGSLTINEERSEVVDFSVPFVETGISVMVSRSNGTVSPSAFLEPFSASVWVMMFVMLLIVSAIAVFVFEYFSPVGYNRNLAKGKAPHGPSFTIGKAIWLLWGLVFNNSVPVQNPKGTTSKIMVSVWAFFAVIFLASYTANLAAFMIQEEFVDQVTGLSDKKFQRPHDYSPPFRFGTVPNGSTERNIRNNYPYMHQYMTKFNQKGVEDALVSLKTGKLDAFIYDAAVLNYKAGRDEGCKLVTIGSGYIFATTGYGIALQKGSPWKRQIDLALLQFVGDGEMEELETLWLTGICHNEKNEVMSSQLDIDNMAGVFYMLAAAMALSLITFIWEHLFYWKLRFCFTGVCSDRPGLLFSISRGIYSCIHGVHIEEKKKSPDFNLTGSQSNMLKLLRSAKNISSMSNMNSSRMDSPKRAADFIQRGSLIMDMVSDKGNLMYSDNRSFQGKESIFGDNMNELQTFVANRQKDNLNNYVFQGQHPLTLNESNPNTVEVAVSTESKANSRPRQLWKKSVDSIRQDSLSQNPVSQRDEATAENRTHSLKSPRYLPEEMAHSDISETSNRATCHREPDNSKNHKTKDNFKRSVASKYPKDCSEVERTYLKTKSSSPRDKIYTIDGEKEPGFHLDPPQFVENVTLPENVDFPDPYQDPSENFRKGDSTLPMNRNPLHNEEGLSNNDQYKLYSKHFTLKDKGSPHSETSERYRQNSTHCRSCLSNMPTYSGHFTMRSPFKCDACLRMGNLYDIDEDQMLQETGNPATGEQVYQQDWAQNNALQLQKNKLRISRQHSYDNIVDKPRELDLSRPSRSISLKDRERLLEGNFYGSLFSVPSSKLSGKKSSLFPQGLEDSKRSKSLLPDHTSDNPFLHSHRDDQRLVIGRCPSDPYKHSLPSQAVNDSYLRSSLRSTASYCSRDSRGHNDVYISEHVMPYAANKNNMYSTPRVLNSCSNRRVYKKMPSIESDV
T6 sequence (O15399 28-1336, other chains not shown): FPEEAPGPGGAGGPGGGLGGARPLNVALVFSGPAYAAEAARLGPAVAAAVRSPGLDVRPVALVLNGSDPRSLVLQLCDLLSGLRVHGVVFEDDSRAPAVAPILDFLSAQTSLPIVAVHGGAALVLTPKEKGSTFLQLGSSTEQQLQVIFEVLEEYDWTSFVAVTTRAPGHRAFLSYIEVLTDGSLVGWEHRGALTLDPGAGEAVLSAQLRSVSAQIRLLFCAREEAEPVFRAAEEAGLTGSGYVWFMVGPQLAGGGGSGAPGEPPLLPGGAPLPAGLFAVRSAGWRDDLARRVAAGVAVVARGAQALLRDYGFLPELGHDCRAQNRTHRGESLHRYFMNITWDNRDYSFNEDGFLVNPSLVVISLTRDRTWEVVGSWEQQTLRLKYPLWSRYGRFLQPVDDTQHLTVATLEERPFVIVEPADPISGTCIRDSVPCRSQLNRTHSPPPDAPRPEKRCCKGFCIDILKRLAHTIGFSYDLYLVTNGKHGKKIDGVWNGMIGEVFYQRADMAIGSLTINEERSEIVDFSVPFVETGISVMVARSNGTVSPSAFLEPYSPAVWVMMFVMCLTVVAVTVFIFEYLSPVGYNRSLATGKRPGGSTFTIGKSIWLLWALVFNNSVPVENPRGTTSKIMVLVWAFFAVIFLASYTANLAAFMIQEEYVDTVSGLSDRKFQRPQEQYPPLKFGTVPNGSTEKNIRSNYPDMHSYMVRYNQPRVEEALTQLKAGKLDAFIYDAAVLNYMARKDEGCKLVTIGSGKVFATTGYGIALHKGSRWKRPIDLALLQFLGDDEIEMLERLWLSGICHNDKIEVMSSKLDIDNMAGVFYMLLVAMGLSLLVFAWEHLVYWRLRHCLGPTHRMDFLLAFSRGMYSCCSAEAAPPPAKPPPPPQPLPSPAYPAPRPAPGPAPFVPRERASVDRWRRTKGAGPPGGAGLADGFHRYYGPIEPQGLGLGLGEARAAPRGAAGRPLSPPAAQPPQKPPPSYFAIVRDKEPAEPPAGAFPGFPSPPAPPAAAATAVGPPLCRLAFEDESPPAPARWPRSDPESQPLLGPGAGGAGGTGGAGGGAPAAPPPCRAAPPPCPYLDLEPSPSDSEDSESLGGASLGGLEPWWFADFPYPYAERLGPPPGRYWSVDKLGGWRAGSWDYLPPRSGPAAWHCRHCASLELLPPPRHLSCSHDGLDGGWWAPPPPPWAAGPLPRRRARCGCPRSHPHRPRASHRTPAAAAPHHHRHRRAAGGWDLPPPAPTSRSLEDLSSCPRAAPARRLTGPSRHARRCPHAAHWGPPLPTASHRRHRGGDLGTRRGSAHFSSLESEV
T4 sequence (O15399 28-1336, other chains not shown): as above

Compound: O=C1NCC12CCC1(CNC1=O)N2Cc1ccccc1 (single isomer, unassigned) [AC-1, 5-benzyl-2,5,8-triazadispiro[3.1.36.24]undecane-1,7-dione]
- Max Effect (mean number of 50 kHz USVs per 15 seconds) ([1]; dose 0.001-1 mg/kg): * (*: 6-10.9)
- Microsomal (Human): percent of compound remaining after 60 minutes [2]: 95%
- Microsomal (Rat): percent of compound remaining after 60 minutes [3]: 100%
- Plasma (Human): percent of compound remaining after 60 minutes (Plasma stability (Human)): 100%
- Plasma (Rat): percent of compound remaining after 60 minutes (Plasma stability (Rat)): 100%
- NMDAR2A: % maximal [3H]MK-801 binding relative to 1 mM glycine [4]: + (<100%=+)
- EC50 ([5]; [3H]MK-801 binding, read-out: NMDAR2B log EC50 (converted)): < 1 nM
- NMDAR2B: % maximal [3H]MK-801 binding relative to 1 mM glycine [5]: + (<100%=+)
- Emax [6, 13]: < 100%
- NMDAR2D: % maximal [3H]MK-801 binding relative to 1 mM glycine [7]: + (<100%=+)

Compound: CC(C)C(=O)N1C2(CCC13CNC3=O)CNC2=O (single isomer, unassigned) [AH, 5-isobutyryl-2,5,8-triazadispiro[3.1.36.24]undecane-1,7-dione]
- Max Effect (mean number of 50 kHz USVs per 15 seconds) ([1]; dose 0.1 mg/kg): ** (**: 11-16.9)
- Microsomal (Human): percent of compound remaining after 60 minutes [2]: 100%
- Microsomal (Rat): percent of compound remaining after 60 minutes [3]: 100%
- Plasma (Human): percent of compound remaining after 60 minutes (Plasma stability (Human)): 95%
- Plasma (Rat): percent of compound remaining after 60 minutes (Plasma stability (Rat)): 100%
- EC50 ([4]; [3H]MK-801 binding, read-out: NMDAR2A: log EC50 (converted)): < 1 nM
- NMDAR2A: % maximal [3H]MK-801 binding relative to 1 mM glycine [4]: + (<100%=+)
- EC50 ([8]; 50 μM glutamate, read-out: NMDAR2B log EC50 (converted)): < 1 nM
- NMDAR2B: % maximal [3H]MK-801 binding relative to 1 mM glycine [5]: + (<100%=+)
- EC50 ([6]; 50 μM glutamate, read-out: NMDAR2C: log EC50 (converted)): < 1 nM
- Emax [6, 13]: < 100%
- EC50 ([9]; 50 μM glutamate, read-out: NMDAR2D: log EC50 (converted)): < 1 nM
- Emax ([9]; 50 μM glutamate, relative to 1 mM glycine): < 100%
- AUC(0-t) (IV pharmacokinetics; Sprague Dawley, iv): 3020 ng·h/mL
- clearance (IV pharmacokinetics; Sprague Dawley, iv): 10.9 mL/min/kg
- half-life (IV pharmacokinetics; Sprague Dawley, iv): 221 min
- C0 (IV pharmacokinetics; Sprague Dawley, iv): 3870 ng/mL
- Vd (IV pharmacokinetics; Sprague Dawley, iv): 1.1 L/kg
- CSF Cmax [10]: 123 ng/mL
- Brain Cmax [10]: 45.8 ng/mL
- AUC(0-t) ([10]; Sprague Dawley): 2570 ng·h/mL
- bioavailability ([10]; Sprague Dawley): 17%
- Tmax ([10]; Sprague Dawley): 1.67 h
- Cmax ([10]; Sprague Dawley): 655 ng/mL

Compound: O=C1NCC12CCC1(CNC1=O)N2 (single isomer, unassigned) [AJ, 2,5,8-triazadispiro[3.1.36.24]undecane-1,7-dione]
- Max Effect (mean number of 50 kHz USVs per 15 seconds) ([1]; dose 0.1 mg/kg): ** (**: 11-16.9)
- Microsomal (Human): percent of compound remaining after 60 minutes [2]: 100%
- Microsomal (Rat): percent of compound remaining after 60 minutes [3]: 100%
- Plasma (Human): percent of compound remaining after 60 minutes (Plasma stability (Human)): 90%
- Plasma (Rat): percent of compound remaining after 60 minutes (Plasma stability (Rat)): 68%
- EC50 [11]: < 1 nM
- NMDAR2A: % maximal [3H]MK-801 binding relative to 1 mM glycine [4]: + (<100%=+)
- EC50 ([8]; NMDAR2B: log EC50, 50 μM glutamate): < 1 nM
- NMDAR2B: % maximal [3H]MK-801 binding relative to 1 mM glycine [5]: + (<100%=+)
- EC50 ([6]; NMDAR2C: log EC50, 50 μM glutamate): < 1 nM
- Emax ([6]; read-out: NMDAR2C: % maximal [3H]MK-801 binding relative to 1 mM glycine): < 100%
- EC50 ([9]; NMDAR2D: log EC50, 50 μM glutamate): < 1 nM
- Emax [9]: < 100%
- AUC(0-t) (IV pharmacokinetics): 2090 ng·h/mL
- clearance (IV pharmacokinetics): 15.4 mL/min/kg
- half-life (IV pharmacokinetics): 26.4 min
- C0 (IV pharmacokinetics): 4860 ng/mL
- Vd (IV pharmacokinetics): 0.47 L/kg
- CSF Cmax [10]: 71.9 ng/mL
- Brain Cmax [10]: 0 ng/mL
- AUC(0-t) [10]: 2060 ng·h/mL
- bioavailability [10]: 20%
- Tmax [10]: 0.5 h
- Cmax [10]: 1160 ng/mL

Compound: NCC1(CC(=O)O)CCCCC1 [gabapentin, reference compound]
- analgesia, control group of the study ([12]; 1 week post-administration): under 5%
- percentage of analgesia, example (typical) control value ([12]; 1 wk): 0%
- percentage of analgesia, example (typical) control value ([12]; 1 h): 72%
- analgesia, control group of the study ([12]; 1 h post-administration): at least 50%
- percentage of analgesia, example (typical) control value ([12]; 24 h): 16%
- analgesia, control group of the study ([12]; 24 h post-administration): under 5%
